{"source": "patent US20120070377A1", "about": "“COMPOUNDS AND BIOLOGICAL MATERIALS AND USES THEREOF” (priority 2009, published 2012)", "key": {"SKOV3 tumours": {"test_system": "SKOV3 tumours", "experiment": "PDT therapy in SKOV3 tumour mice", "type": "in vivo, BALB/c nude mice", "experimental": "Female BALB/c nude mice (aged 6-8 weeks old) were implanted with 10^7 SKOV3 tumour cells mixed in 0.1 ml of ice-cold matrigel subcutaneously and the tumours were allowed to grow for 3-6 weeks as xenografts. Mice were maintained in IVC cages (individually-vented cages) in a clean room. Samples were injected in a volume of 0.1 ml, intravenously via the lateral tail vein and the mice were maintained in low light with full food and water (irradiated). At various time points (1-24 hr), mice were culled by cardiac puncture under terminal anesthesia and blood and tissues collected. All the tissues were counted for radioactivity by gamma counting and weighed.\nTumours were set up as described above and injected (iv into the mouse tail vein) with 0.2 ml of free PPa-PEG1 (0.1 mg=33 micromolar concentration) PS on day 1 and day 4. Based on the tumour uptake (see FIG. 10), an HPD laser was used to illuminate the tumours for 20 minutes at 0.5 W after 4 hrs. The mice were anaesthetized beforehand. Laser treatment followed each drug cycle. The tumours were followed for 3 weeks and the % increase in tumour size was plotted (day 0=100%) (see FIG. 12).\nTumours (groups of 6 mice) were set up as described above and injected (iv into the mouse tail vein) with 0.2 ml of C6-PPa-PEG PIC or free PPa-PEG1 PS (1 mg/ml PIC=33 micomolar concentration scFv or 330 micromolar PPa-PEG) on day 1 and day 4. […]"}, "SKOV3": {"test_system": "SKOV3", "experiment": "In vitro phototoxicity (MTS cell titre assay after 670 nm laser light), Example 5", "type": "cell-based, human", "conditions": "Homo sapiens, SK-OV-3; free photosensitisers; 2 hrs incubation, 670 nm laser 0.5 W 10 s, MTS after 48 h", "experimental": "(§1) Two different human-derived tumour cell lines: SKOV3 and KB were obtained from the European Collection of Cell Cultures (ECACC) and cultured in Dulbecco's modified Eagle's medium (DMEM) with 10% foetal bovine serum, penicillin and streptomycin antibiotics (1%) and passaged when 70-90% confluent in 75 cm^2 flasks. The cells were maintained at 37° C. in a humidified 5% CO2 atmosphere.\n(§2) Cells were trypsinised and seeded at 2×10^3 cells/well for KB and 3×10^3 cells/well for SKOV3 into 96-well plates and incubated over two nights for KB and overnight for SKOV3 at 37° C. and 5% CO2. The cells were then washed once in phenol red free DMEM and appropriately diluted photosensitiser solution or photo-immunoconjugate (in DMEM, 2% DMSO) was added to the appropriate wells under subdued lighting. DMEM or Triton X-100 (1%) were added to control wells. After 2 hrs incubation in the dark at 37° C., 5% CO2, cells were washed three times with PBS and 100 μl of DMEM was added to each well.\n(§3) Wells were exposed to light from a High Powered-Devices 670 nm laser used at 0.5 W for 10 s. Controls included wells with photosensitiser added and no exposure to light, or DMEM added and exposure to light as well as Triton X-100 (1%) with or without light exposure. Cells that had no photosensitiser added and no exposure to light were included as overall controls. Cells were incubated in the dark at 37° C., 5% CO2 for 48 h after which time, a cell titre assay was performed according to the manufacturer's instructions. The Promega Cell Titre-96 system was used which involves the conversion by live cells of a tetrazolium compound (MTS) into a formazan dye which is measurable by its absorbance at 490 nm."}, "KB": {"test_system": "KB", "experiment": "In vitro phototoxicity (MTS cell titre assay after 670 nm laser light), Example 5", "type": "cell-based, human", "conditions": "Homo sapiens, KB; free photosensitisers; 2 hrs incubation, 670 nm laser 0.5 W 10 s, MTS after 48 h", "experimental": "as §1, §2, §3"}}}
{"smiles": "CCC1=C(C)c2cc3[nH]c(c(C)c3CC)c(C#CCCCC(=O)ON3C(=O)CCC3=O)c3nc(c4c5[nH]c(cc1n2)c(C)c5C(=O)C4)[C@@H](CCC(=O)OCc1cc(OCCOCCOCCOC)c(OCCOCCOCCOC)c(OCCOCCOCCOC)c1)[C@@H]3C", "note": "[compound 11, Meso 5-Ethynylhexanoyl succinimido ester pyropheophorbide a-3,4,5-(triethylene glycolmonomethylether) benzyl ester]", "values": [{"measurement": "tumour regression compared to untreated (Saline) controls", "setting": "SKOV3 tumours; C6 PPa-PEG therapy: 0.2 ml iv day 1 and day 4, 1 mg/ml PIC or 0.5 mg/ml free PS, laser 20 minutes 0.5 W after 4 hrs, followed 6 weeks", "value": "no significant tumour regression"}, {"measurement": "tumour regression compared to untreated (Saline) controls", "setting": "SKOV3 tumours; PPa-PEG only therapy: 0.2 ml iv (0.1 mg) day 1 and day 4, laser 20 minutes 0.5 W after 4 hrs, followed 3 weeks", "value": "no significant tumour regression"}, {"measurement": "IC50", "setting": "SKOV3", "value": 1.1, "unit": "µM"}, {"measurement": "IC50", "setting": "KB", "value": "1.2 ± 0.5", "unit": "µM"}]}
